Experimental findings from US9320270B2, “Method of field application of natural pesticides with reduced toxicity and high efficacy by means of microencapsulation” (priority 2009, dated 2016) are described below.

A short description of the series: decomposition during emulsification at 70° C. It counts as physicochemical. Particulars: without antioxidants and weak acids. The method, then:
The process of microencapsulation is performed adding the oil phase to the first water phase under high shear stress, being emulsified at 70° C.

As to abamectin, the decomposition during emulsification is on record as 5-25%.
